Data on 14 compounds can be found in PubChem BioAssay (NCI).

Some test systems named below: HS 578T breast; SW-620 colon; UACC-62 melanoma; ACHN renal; OVCAR-3 ovarian; SN12C renal; SF-295 CNS; KM12 colon; NCI-H23 lung; PC-3 prostate.
Holding throughout (experiment): DTP human tumour cell line panel, 48 h

Molecules are shown by their SMILES.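 Tested at 5 concentrations; 48 h exposure; 96-well plates; endpoints linearly interpolated, else capped at highest concentration. GI50: concentration for 50% inhibition of growth. TGI denotes the concentration required for complete inhibition of growth.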

Take `C[N+](C)(CCCCCC[N+](C)(C)CCCN1C(=O)c2cc3ccccc3cc2C1=O)CCCN1C(=O)c2cc3ccccc3cc2C1=O`: the GI50 in the test with HS 578T breast was over 37.5 µM; in the test on SW-620 colon, over 37500 nM; in the test with UACC-62 melanoma, over 37.5 µM; in the test with ACHN renal, over 37.5 µM; in the test with OVCAR-3 ovarian, over 37500 nM; in the test with SN12C renal, over 37.5 µM. For the same compound, the GI50 in the test on SF-295 CNS, in the test with KM12 colon, in the test with NCI-H23 lung and in the test on PC-3 prostate was over 37500 nM throughout. Further, the TGI with HS 578T breast, in the test with SW-620 colon, with UACC-62 melanoma, in the test on ACHN renal, in the test with OVCAR-3 ovarian and in the test on SN12C renal was over 37.5 µM in each case. In addition, the TGI with SF-295 CNS, in the test with KM12 colon, with NCI-H23 lung and with PC-3 prostate was over 37.5 µM in each case.

Consider `CC(C)=CCC1=C(OCC(=O)O)C(=O)c2ccccc2C1=O`, for which the TGI was 62.6 µM in the test with HS 578T breast; 76.6 µM with SW-620 colon; 37.7 µM in the test with UACC-62 melanoma; over 100 µM in the test with ACHN renal; 74.8 µM in the test with SN12C renal; 41.4 µM in the test on SF-295 CNS. For the same compound, the TGI with KM12 colon, in the test on NCI-H23 lung and in the test on PC-3 prostate was over 100 µM throughout.

As to `CC1(C)CCCC(C)(C2CCC3(C)C2C(O)CC2C4(C)CCC(O)C(C)(C)C4C(O)CC23C)O1` (stereo unspecified), the TGI in the test on HS 578T breast was found to be 30.8 µM; in the test with SW-620 colon, 41.6 µM; in the test on UACC-62 melanoma it was 27.5 µM; with ACHN renal it was 24.5 µM; in the test with SN12C renal, 30.8 µM; in the test with SF-295 CNS, 24.7 µM. The figures for the concentration for total growth inhibition (TGI) with KM12 colon, in the test on NCI-H23 lung and in the test on PC-3 prostate were 24.7 µM, 25.6 µM and 25.7 µM, respectively.

On to `COc1ccc(-c2nc(Nc3ccc(-c4nc5ccccc5[nH]4)cc3)nc(N3CCOCC3)n2)cc1`, for which the GI50 with HS 578T breast was 1.76 µM; in the test with SW-620 colon, 2190 nM; with ACHN renal, 2.55 µM; with SN12C renal, 3.19 µM; in the test with SF-295 CNS, 1590 nM; in the test on KM12 colon, 2060 nM. Besides, the GI50 is 2570 nM with NCI-H23 lung and 2390 nM in the test with PC-3 prostate. Moreover, the TGI in the test with HS 578T breast was 6.96 µM; with SW-620 colon, 4.8 µM; in the test with ACHN renal, over 100 µM; with SN12C renal, 23 µM; in the test on SF-295 CNS, 4.7 µM; in the test with KM12 colon, 5.69 µM. Besides, the TGI was 9.9 µM in the test on NCI-H23 lung and 6.66 µM in the test on PC-3 prostate.

Turning to `O=C(NNc1ccc(F)cc1)C1CCC(CNS(=O)(=O)c2ccc(Cl)c(Cl)c2)CC1` (stereo unspecified), the GI50 is 10.5 µM in the test with HS 578T breast; 9030 nM in the test on SW-620 colon; 1.98 µM with UACC-62 melanoma; 4.08 µM in the test on ACHN renal; 2110 nM in the test on OVCAR-3 ovarian; 7.97 µM with SN12C renal. Also, the GI50 is 2160 nM in the test on SF-295 CNS, 1380 nM with KM12 colon and 6300 nM in the test with PC-3 prostate. Also, the TGI in the test with HS 578T breast was 42.4 µM; with SW-620 colon, over 50 µM; in the test on UACC-62 melanoma it was 23.4 µM; in the test on ACHN renal, 13.4 µM; in the test on OVCAR-3 ovarian, 13.9 µM; in the test on SN12C renal, over 50 µM. Besides, the TGI came out at 45.5 µM in the test on SF-295 CNS, 42.6 µM in the test with KM12 colon and 39.5 µM with PC-3 prostate.

For `N#Cc1ccsc1NC(=O)COC(=O)c1cccc(S(=O)(=O)N2CCc3ccccc32)c1`, the GI50 was over 100 µM in the test on HS 578T breast; 24100 nM in the test with SW-620 colon; 32 µM in the test with UACC-62 melanoma; 50.5 µM in the test on ACHN renal; 53700 nM in the test on OVCAR-3 ovarian; 33400 nM with SF-295 CNS. For the same compound, the GI50 in the test with KM12 colon was 38600 nM; with NCI-H23 lung, 38900 nM; in the test with PC-3 prostate, 27100 nM. Further, the TGI with HS 578T breast, with SW-620 colon, in the test with UACC-62 melanoma, with ACHN renal, in the test on OVCAR-3 ovarian and in the test with SF-295 CNS was over 100 µM in each case. The TGI in the test on KM12 colon, with NCI-H23 lung and in the test on PC-3 prostate was over 100 µM throughout.

Take `CCN(CC)CCOc1ccc(/C=C2\C[C@H]3[C@H]4CC=C5C[C@@H](O)CC[C@]5(C)[C@H]4CC[C@]3(C)[C@H]2O)cc1OC`: the GI50 in the test on HS 578T breast was 8.66 µM; in the test on SW-620 colon it was 1930 nM; in the test with UACC-62 melanoma, 7.53 µM; with ACHN renal it was 9.23 µM; in the test on OVCAR-3 ovarian, 7960 nM; in the test with SN12C renal, 6.78 µM. Also, the GI50 is 10400 nM with SF-295 CNS, 8100 nM in the test on KM12 colon and 11200 nM in the test with NCI-H23 lung. Moreover, the TGI in the test on HS 578T breast was 18.7 µM; in the test with SW-620 colon it was 11.7 µM; with UACC-62 melanoma, 14.5 µM; in the test on ACHN renal it was 17.4 µM; with OVCAR-3 ovarian it was 17.8 µM; in the test with SN12C renal, 14 µM. Also, the values for the TGI with SF-295 CNS, with KM12 colon and with NCI-H23 lung were 25.4 µM, 17 µM and 23.9 µM, respectively.

Turning to `COc1ccc2c(c1)C1OCCNC1CC2` (stereo unspecified), the TGI in the test with HS 578T breast, in the test with SW-620 colon, in the test on UACC-62 melanoma, in the test on ACHN renal, in the test with SN12C renal and in the test with SF-295 CNS was over 100 µM in each case. In addition, the TGI in the test on KM12 colon, in the test on NCI-H23 lung and in the test on PC-3 prostate was over 100 µM in each case.

Turning to `Cn1cc(-c2csc(-c3cn(CCCCN4CCCCC4)c4ccc(F)cc34)n2)c2cccnc21`, the GI50 was 12.4 µM with HS 578T breast; 1830 nM in the test with SW-620 colon; 1770 nM with OVCAR-3 ovarian; 1630 nM in the test on SF-295 CNS; 1690 nM in the test with NCI-H23 lung. For the same compound, the TGI in the test on HS 578T breast is 53.8 µM; in the test with SW-620 colon, 3.44 µM; in the test on OVCAR-3 ovarian, 3.17 µM; in the test on SF-295 CNS it was 3.05 µM; with NCI-H23 lung, 3.2 µM.

In the case of `CNc1cc2nc3cc(NC)c(C)cc3cc2cc1C`, the GI50 with HS 578T breast is 1.62 µM; with UACC-62 melanoma, 8.82 µM; in the test with ACHN renal it was 0.965 µM; with OVCAR-3 ovarian, 1320 nM; with SN12C renal it was 0.573 µM; in the test with SF-295 CNS, 1410 nM. Moreover, the GI50 is 792 nM in the test with KM12 colon, 624 nM in the test with NCI-H23 lung and 1070 nM in the test with PC-3 prostate. For the same compound, the TGI turned out to be 7.6 µM with HS 578T breast; 34.5 µM with UACC-62 melanoma; 20.8 µM with ACHN renal; 10 µM in the test on OVCAR-3 ovarian; 10.5 µM in the test on SN12C renal; 13.2 µM in the test on SF-295 CNS. For the same compound, the TGI with KM12 colon was 2.28 µM; with NCI-H23 lung it was 3.11 µM; with PC-3 prostate, 15.7 µM.

In the case of `CO[C@]12C=C/C(=C(/C(=O)OCc3cccnc3)C(=O)CCCCCCCC[C@@]3(OC)C=C/C(=C(/C(=O)OCc4cccnc4)C(=O)CCCCCCCC1)O3)O2`, the GI50 in the test on HS 578T breast was 2.08 µM; in the test with SW-620 colon, 1620 nM; in the test on ACHN renal, 1.3 µM; in the test on OVCAR-3 ovarian, 1160 nM; in the test with SN12C renal, 1.84 µM; with KM12 colon, 1030 nM. In addition, the GI50 in the test on NCI-H23 lung is 790 nM; in the test on PC-3 prostate, 1740 nM. The TGI with HS 578T breast was over 50 µM; in the test with SW-620 colon it was 6.75 µM; in the test on ACHN renal it was over 50 µM; in the test with OVCAR-3 ovarian, 3.84 µM; with SN12C renal, 34.2 µM; in the test with KM12 colon it was 2.38 µM. For the same compound, the figures for the TGI with NCI-H23 lung and in the test with PC-3 prostate were 1.87 µM and over 50 µM, respectively.

For the compound `O=C(O)C1C2C=CC(C2)C1C(=O)O` (stereo unspecified), the GI50 was over 100 µM with HS 578T breast; over 100000 nM in the test on SW-620 colon; over 100 µM with UACC-62 melanoma; over 100 µM in the test on ACHN renal; over 100000 nM in the test on OVCAR-3 ovarian; over 100 µM in the test on SN12C renal. For the same compound, the GI50 with SF-295 CNS, in the test with KM12 colon and in the test with PC-3 prostate was over 100000 nM in each case. In addition, the TGI in the test with HS 578T breast, with SW-620 colon, in the test with UACC-62 melanoma, in the test with ACHN renal, in the test with OVCAR-3 ovarian and with SN12C renal was over 100 µM throughout. Moreover, the TGI with SF-295 CNS, with KM12 colon and in the test with PC-3 prostate was over 100 µM in each case.

In the case of `Nc1ccccc1NC(=O)c1ccc(CN2CCC/C(=C\c3ccccn3)C2=O)cc1`, the GI50 in the test on SW-620 colon is 745 nM; with UACC-62 melanoma, 0.411 µM; in the test on ACHN renal, 1.26 µM; in the test on OVCAR-3 ovarian, 2370 nM; in the test with SN12C renal, 2.59 µM; with SF-295 CNS, 1920 nM. Further, the values for the GI50 with KM12 colon, in the test on NCI-H23 lung and with PC-3 prostate were 1530 nM, 2110 nM and 1330 nM, respectively. Further, the TGI with SW-620 colon was over 100 µM; with UACC-62 melanoma, 2.35 µM; in the test on ACHN renal, over 100 µM; in the test with OVCAR-3 ovarian, over 100 µM; in the test on SN12C renal it was over 100 µM; in the test with SF-295 CNS, 11.7 µM. Moreover, the TGI with KM12 colon, in the test with NCI-H23 lung and with PC-3 prostate was over 100 µM throughout.

In the case of `CC(=O)OC12c3ccccc3-c3ccccc3C1C(C(=O)O)C2(Cl)C(=O)O` (stereo unspecified), the TGI in the test with HS 578T breast, with SW-620 colon, in the test with ACHN renal, in the test with OVCAR-3 ovarian, in the test with SN12C renal and with SF-295 CNS was over 10 µM each time. Also, the TGI with KM12 colon, with NCI-H23 lung and with PC-3 prostate was over 10 µM in each case.

A word on the GI50: it is the concentration at which growth is held to half of that of the control. What is called TGI is the concentration giving total growth inhibition. Lower therefore signals more potent growth arrest.
